Results reported in article PMC6213900, “Design, Synthesis, and Cytotoxic Analysis of Novel Hederagenin–Pyrazine Derivatives Based on Partial Least Squares Discriminant Analysis” (International Journal of Molecular Sciences, 2018).
Read-outs that look alike come from different tables or passages of the source.

Assays:
[1] = system: H9c2 (murine heart myoblast); assay: MTT toxicity evaluation, H9c2; assay type: cell-based; conditions: non-tumor cells, read-out: Half Maximal Inhibitory Concentration (IC50) H9c2
Method: (§1) The cytotoxicity of hederagenin derivatives in vitro was evaluated on three tumor cell lines (A549: human non-small-cell lung cancer; MCF-7: human mammary cancer; HepG2: human hepatocellular carcinoma) using the 3-(4,5-dimethylthiazol-2-yl)-2,5-diphenyltetrazolium bromide (MTT) assay. In addition, their toxicity evaluations were tested on H9c2 (murine heart myoblast) and MDCK (Madin–Darby canine kidney) cells. MCF-7, A549, HepG2, H9c2, and MDCK cells were obtained from the Chinese Academy of Medical Sciences and Peking Union Medical College. All of the cell lines were maintained in Dulbecco’s modified Eagle medium (DMEM) supplemented with 1% (v/v) penicillin/streptomycin and 10% (v/v) fetal bovine serum (FBS; Thermo Technologies, New York, NY, USA) under a humidified atmosphere containing 5% CO2 at 37 °C. The stock solutions of He derivatives were dissolved in dimethyl sulfoxide (DMSO; Sigma, St. Louis, MO, USA) and added at various concentrations to the cell culture. Cellular morphologies were observed using an inverted fluorescence microscope (Olympus IX71, Tokyo, Japan), a plate reader (BIORAD 550 spectrophotometer, Bio-rad Life Science Development Ltd., Beijing, China), and a Canton 2 flow cytometer (BD, New York, NY, USA). The antitumor activity of these compounds were evaluated on MCF-7, A549, HepG2, MDCK, and H9c2 cell lines using the MTT assay. Cells at a density of 3 × 10^3 cells/well were plated in a 96-multiwell plate in DMEM containing 10% FBS for 24 h at 37 °C with 5% CO2. Then, cells were treated for 72 h with the required concentrations (3.125, 6.25, 12.5, 25, or 50 μM) of the compounds and reference drugs (He and DDP) dissolved with the vehicle DMSO. After that, the culture substrate was replaced with 200 μL of DMEM containing 20 μL of MTT solution at 5 mg/mL and incubated for 4 h. The supernatant was removed and the dissolved formazans precipitated with 120 μL of DMSO. Wells without drugs were used as blanks. A plate reader was used to determine the absorbance at 490 nm. The above steps were repeated three times. The IC50 values were defined as the concentration of the compound which gave 50% growth inhibition, and they were calculated using Graph Pad Prism 5. The inhibition rate was calculated using the following formula, where OD is the optical density:% inhibition = 1 − (Sample group OD/Control group OD) × 100%. (1)

[2] = system: A549 (human non-small-cell lung cancer); assay: MTT cytotoxicity assay, A549; assay type: cell-based; conditions: read-out: Half Maximal Inhibitory Concentration (IC50) A549
Method: as §1

[3] = system: MCF-7 (human mammary cancer); assay: MTT cytotoxicity assay, MCF-7; assay type: cell-based; conditions: read-out: Half Maximal Inhibitory Concentration (IC50) MCF-7
Method: as §1

[4] = system: HepG2 (human hepatocellular carcinoma); assay: MTT cytotoxicity assay, HepG2; assay type: cell-based; conditions: MTT, 72 h treatment, read-out: Half Maximal Inhibitory Concentration (IC50) HepG2
Method: as §1

[5] = system: MDCK (Madin–Darby canine kidney) cells; assay: MTT toxicity evaluation, MDCK; assay type: cell-based; conditions: 72 h treatment, non-tumor cells, read-out: Half Maximal Inhibitory Concentration (IC50) MDCK
Method: as §1

[6] = Homo sapiens, A549, 72 h treatment
[7] = Homo sapiens, MCF7, 72 h treatment

melting point | SMILES | IC50 ([1]; H9c2, 72 h treatment) | IC50 [2, 6] | IC50 [3, 7] | IC50 ([4]; Homo sapiens, HepG2) | IC50 ([5]; Canis lupus familiaris, MDCK) | IC50 ([1]; 72 h treatment) | IC50 ([2]; 72 h treatment) | IC50 ([3]; 72 h treatment) | IC50 [4] | IC50 [5]
146.8 °C | CC1(C)CC[C@]2(C(=O)OCc3cnccn3)CC[C@]3(C)C(=CCC4[C@@]5(C)CC[C@H](O)[C@@](C)(CO)C5CC[C@]43C)C2C1 (stereo partly drawn) [Compound 1, Pyrazin-2-ylmethyl(4aS,6aS,6bR,9R,10S,12aR)-10-hydroxy-9-(hydroxymethyl)-2,2,6a,6b,9,12a-hexamethyl-1,3,4,5,6,6a,6b,7,8,8a,9,10,11,12,12a,12b,13,14b-octadecahydropicene-4a(2H)-carboxylate] | 14.7 ± 0.51 µM | 17.6 ± 0.37 µM | 16.05 ± 0.01 µM | 18.79 ± 0.04 µM | 18.1 ± 0.25 µM | – | – | – | – | –
107 °C | Cc1cncc(COC(=O)[C@]23CCC(C)(C)CC2C2=CCC4[C@@]5(C)CC[C@H](O)[C@@](C)(CO)C5CC[C@@]4(C)[C@]2(C)CC3)n1 (stereo partly drawn) [Compound 2, (6-Methylpyrazin-2-yl)methyl(4aS,6aS,6bR,9R,10S,12aR)-10-hydroxy-9-(hydroxymethyl)-2,2,6a,6b,9,12a-hexamethyl-1,3,4,5,6,6a,6b,7,8,8a,9,10,11,12,12a,12b,13,14b-octadecahydropicene-4a(2H)-carboxylate] | 25.1 ± 0.43 µM | 20.6 ± 0.29 µM | 15.8 ± 0.22 µM | 27.2 ± 1.82 µM | 26.7 ± 1.64 µM | – | – | – | – | –
170.3 °C | Cc1cnc(COC(=O)[C@]23CCC(C)(C)CC2C2=CCC4[C@@]5(C)CC[C@H](O)[C@@](C)(CO)C5CC[C@@]4(C)[C@]2(C)CC3)cn1 (stereo partly drawn) [Compound 3, (5-Methylpyrazin-2-yl)methyl(4aS,6aS,6bR,9R,10S,12aR)-10-hydroxy-9-(hydroxymethyl)-2,2,6a,6b,9,12a-hexamethyl-1,3,4,5,6,6a,6b,7,8,8a,9,10,11,12,12a,12b,13,14b-octadecahydropicene-4a(2H)-carboxylate] | > 30 µM | 15 ± 0.35 µM | 16.8 ± 9.25 µM | 18.9 ± 0.35 µM | 18.4 ± 3.76 µM | – | – | – | – | –
170.4 °C | Cc1nccnc1COC(=O)[C@]12CCC(C)(C)CC1C1=CCC3[C@@]4(C)CC[C@H](O)[C@@](C)(CO)C4CC[C@@]3(C)[C@]1(C)CC2 (stereo partly drawn) [Compound 4, (3-Methylpyrazin-2-yl)methyl(4aS,6aS,6bR,9R,10S,12aR)-10-hydroxy-9-(hydroxymethyl)-2,2,6a,6b,9,12a-hexamethyl-1,3,4,5,6,6a,6b,7,8,8a,9,10,11,12,12a,12b,13,14b-octadecahydropicene-4a(2H)-carboxylate] | 20.4 ± 2.24 µM | 17.1 ± 1.06 µM | 17.3 ± 0.48 µM | 25.5 ± 1.4 µM | 26.1 ± 1.02 µM | – | – | – | – | –
> 200 °C | Cc1ncc(COC(=O)[C@]23CCC(C)(C)CC2C2=CCC4[C@@]5(C)CC[C@H](O)[C@@](C)(CO)C5CC[C@@]4(C)[C@]2(C)CC3)nc1C (stereo partly drawn) [Compound 5, (5,6-Dimethylpyrazin-2-yl)methyl(4aS,6aS,6bR,9R,10S,12aR)-10-hydroxy-9-(hydroxymethyl)-2,2,6a,6b,9,12a-hexamethyl-1,3,4,5,6,6a,6b,7,8,8a,9,10,11,12,12a,12b,13,14b-octadecahydropicene-4a(2H)-carboxylate] | 28.5 ± 0.29 µM | 24.4 ± 0.37 µM | > 30 µM | 24.94 ± 0.06 µM | 23.5 ± 0.67 µM | – | – | – | – | –
127.8 °C | Cc1nc(C)c(COC(=O)[C@]23CCC(C)(C)CC2C2=CCC4[C@@]5(C)CC[C@H](O)[C@@](C)(CO)C5CC[C@@]4(C)[C@]2(C)CC3)nc1C (stereo partly drawn) [Compound 6, (3,5,6-Trimethylpyrazin-2-yl)methyl(4aS,6aS,6bR,9R,10S,12aR)-10-hydroxy-9-(hydroxymethyl)-2,2,6a,6b,9,12a-hexamethyl-1,3,4,5,6,6a,6b,7,8,8a,9,10,11,12,12a,12b,13,14b-octadecahydropicene-4a(2H)-carboxylate] | > 30 µM | 25.5 ± 0.26 µM | > 30 µM | > 30 µM | 24.1 ± 0.76 µM | – | – | – | – | –
246.6 °C | CC1(C)CC[C@]2(C(=O)OCCO)CC[C@]3(C)C(=CCC4[C@@]5(C)CC[C@H](O)[C@@](C)(CO)C5CC[C@]43C)C2C1 (stereo partly drawn) [Compound 7, 2-Hydroxyethyl (4aS,6aS,6bR,9R,10S,12aR)-10-hydroxy-9-(hydroxymethyl)-2,2,6a,6b,9,12a-hexamethyl-1,3,4,5,6,6a,6b,7,8,8a,9,10,11,12,12a,12b,13,14b-octadecahydropicene-4a(2H)-carboxylate] | > 30 µM | > 30 µM | > 30 µM | > 30 µM | > 30 µM | – | – | – | – | –
154.7 °C | CC1(C)CC[C@]2(C(=O)OCCOC(=O)c3cnccn3)CC[C@]3(C)C(=CCC4[C@@]5(C)CC[C@H](O)[C@@](C)(CO)C5CC[C@]43C)C2C1 (stereo partly drawn) [Compound 8, 2-(((4aS,6aS,6bR,9R,10S,12aR)-10-Hydroxy-9-(hydroxymethyl)-2,2,6a,6b,9,12a-hexamethyl-1,2,3,4,4a,5,6,6a,6b,7,8,8a,9,10,11,12,12a,12b,13,14b-icosahydropicene-4a-carbonyl)oxy)ethylpyrazine-2-carboxylate] | 21.7 ± 0.86 µM | 23.9 ± 0.31 µM | 25.35 ± 0.09 µM | 17.4 ± 0.75 µM | 20.1 ± 0.3 µM | – | – | – | – | –
192.6 °C | Cc1cnc(C(=O)OCCOC(=O)[C@]23CCC(C)(C)CC2C2=CCC4[C@@]5(C)CC[C@H](O)[C@@](C)(CO)C5CC[C@@]4(C)[C@]2(C)CC3)cn1 (stereo partly drawn) [Compound 10, 2-(((4aS,6aS,6bR,9R,10S,12aR)-10-Hydroxy-9-(hydroxymethyl)-2,2,6a,6b,9,12a-hexamethyl-1,2,3,4,4a,5,6,6a,6b,7,8,8a,9,10,11,12,12a,12b,13,14b-icosahydropicene-4a-carbonyl)oxy)ethyl-5-methylpyrazine-2-carboxylate] | 19.6 ± 3.29 µM | 20.9 ± 0.68 µM | 27.2 ± 2.09 µM | 28.17 ± 0.21 µM | 25.4 ± 0.28 µM | – | – | – | – | –
146.8 °C | Cc1nccnc1C(=O)OCCOC(=O)[C@]12CCC(C)(C)CC1C1=CCC3[C@@]4(C)CC[C@H](O)[C@@](C)(CO)C4CC[C@@]3(C)[C@]1(C)CC2 (stereo partly drawn) [Compound 11, 2-(((4aS,6aS,6bR,9R,10S,12aR)-10-Hydroxy-9-(hydroxymethyl)-2,2,6a,6b,9,12a-hexamethyl-1,2,3,4,4a,5,6,6a,6b,7,8,8a,9,10,11,12,12a,12b,13,14b-icosahydropicene-4a-carbonyl)oxy)ethyl-3-methylpyrazine-2-carboxylate] | 14.7 ± 0.16 µM | 14.12 ± 0.01 µM | 27.3 ± 0.57 µM | 14.84 ± 0.03 µM | 18.64 ± 0.18 µM | – | – | – | – | –
– | CC1(C)CC[C@]2(C(=O)OCCCCCl)CC[C@]3(C)C(=CCC4[C@@]5(C)CC[C@H](O)[C@@](C)(CO)C5CC[C@]43C)C2C1 (stereo partly drawn) [Compound 20] | > 30 µM | > 30 µM | > 30 µM | > 30 µM | > 30 µM | – | – | – | – | –
– | N.N.[Cl][Pt][Cl] [DDP, cisplatin, reference compound] | – | – | – | – | – | 5.31 ± 0.26 µM | 3.85 ± 0.63 µM | 5.17 ± 0.28 µM | 3.42 ± 0.68 µM | 9.97 ± 1.12 µM
– | CC1(C)CC[C@]2(C(=O)O)CC[C@]3(C)C(=CC[C@@H]4[C@@]5(C)CC[C@H](O)[C@@](C)(CO)[C@@H]5CC[C@]43C)[C@@H]2C1 [He, Hederagenin] | > 50 µM | > 50 µM | > 50 µM | > 50 µM | > 50 µM | – | – | – | – | –
